# Entries after “also recorded” stand apart in the source; their conditions may differ. Like-named read-outs stand apart in the source and are kept apart here.
# How the values were obtained:
# [1] = tested on: J82 (bladder); assay: Proliferation EC50 on SISgel vs monolayer; assay type: cell-based; settings: n = 6-8
# Source text: (§1) The libraries were obtained from the NCI (Diversity Library I) comprised of 2,918 compounds and a 10,000 compound diversity library from ChemBridge, Inc. (DiverSet-EXP). The NCI library is no longer available in the form used here, but how it was constructed is described (http://dtp.nci.nih.gov/branches/dscb/diversity_explanation.html). The ChemBridge library is a subset (Set Code NM1024) of the full 50,000 compound library (http://www.chembridge.com/screening_libraries/diversity_libraries/). Compounds were diluted to 100 μM before use. SISgel was prepared as described previously from powdered porcine small intestine submucosa obtained from Cook Biotech (W. Lafayette, IN). It is a natural product that is used extensively in tissue engineering as a bioscaffold. J82 bladder cancer cells and other cell lines were obtained from the ATCC (Bethesda, MD). The basic principle is that cells grown on any ECM are, in general, expected to show higher resistance to anticancer compounds than when grown on plastic. Therefore, compounds that show a higher activity toward cancer cells on a normal ECM than on a plastic surface would be candidates to target suppressed, micrometastatic cells. Efficacy in vitro was assessed by plating 30,000 cells in 50 μL of high glucose DMEM with penicillin-streptomycin and 10 % fetal calf serum on SISgel in a 96-well plate containing 50 μL of gelled SISgel per well. Cells were allowed to attach and assume the SISgel phenotype for 48 h. A matching plate without SISgel was prepared 24 h later by pipetting 3,000 cells in 100 μL of high glucose DMEM with penicillin-streptomycin and 10 % fetal calf serum into each well of 96 well plate. The cells were allowed to attach and grow for 24 h. These numbers of cells gave approximately equal replication rates at the time drug was added for cells grown on the plastic surface or SISgel as determined by the fraction of S-phase cells identified by flow cytometry. The cells were exposed to drug in fresh medium for 48 h, at which time the cell number was determined using the CFDA-AM cellular esterase proliferation assay (cat. #C1354, Life Technologies). For screening the results are reported as the ratio of cell count of cells on the plastic surface to the cell count on SISgel. An initial difference of 1.5 fold identified potential hits. All potential hits were confirmed in triplicate. Those compounds that replicated were confirmed by a full dose–response study yielding an EC50 using five wells per drug concentration. Data were analyzed using nonlinear regression to a sigmoid curve with Prism 4 (GraphPad Software, Inc., LaJolla, CA). Potential hits that were confirmed by dose–response using J82 were also tested with MDA-MB-435 breast cancer, PC-3 metastatic prostate cancer, Capan1 pancreatic cancer and the J82 bladder cancer cell lines.
# [2] = tested on: Capan-1 (pancreatic); assay: Proliferation EC50 on SISgel vs monolayer; assay type: cell-based; settings: Homo sapiens, n = 6-8
# Source text: as §1
# [3] = tested on: MDA-MB-435-GFP cells; assay: Flank xenograft model of ECM-suppressed cells co-injected with SISgel; assay type: in vivo, nu/nu mice; settings: 75 mg/kg twice weekly; 6 flanks
# Method: The efficacy of DT320 was assessed using a flank xenograft model of ECM-suppressed cancer cells that we developed, as well as an orthotopic model of “triple-negative” breast cancer. All animal protocols were reviewed and approved by the OUHSC Institutional Animal Care and Use Committee according to criteria established by the NIH Office of Laboratory Animal Welfare, and animals were housed 5 per cage with enrichment (tubes) and wood chips in the AALAC-accredited OUHSC Animal Facility with a 12 h light/dark cycle. Animals had access to water and food ad libatum. Animals were monitored daily by trained facility personnel. In the flank model, GFP-labeled cells were co-injected with SISgel, which produces a suppressed, normalized phenotype that persists after the SISgel is resorbed, but which can re-emerge into active tumor growth after 30–60 days. Animals were all female nu/nu mice (NCI National Laboratory Frederick/Charles River animal production program). An optimized number of 5 × 10^5 GFP-labeled MDA-MB-435 cells in 100 μL DMEM medium, without additives, were mixed with 100 μL of SISgel and were kept on ice until injection to prevent polymerization of the SISgel. […] The cells injected into the flanks remained as a non-growing spot, as assessed by fluorometry of the spots and the lack of mitoses seen in tissue sections, for about 3–5 weeks before some began resuming malignant growth. […]
# [4] = tested on: cancer cells on SISgel or plastic; assay: Activity of leads and analogs on cancer cells grown on plastic vs SISgel (cell line not stated); assay type: cell-based
# Method: The NCI library is no longer available in the form used here, but how it was constructed is described (http://dtp.nci.nih.gov/branches/dscb/diversity_explanation.html). The ChemBridge library is a subset (Set Code NM1024) of the full 50,000 compound library (http://www.chembridge.com/screening_libraries/diversity_libraries/). Compounds were diluted to 100 μM before use. SISgel was prepared as described previously from powdered porcine small intestine submucosa obtained from Cook Biotech (W. Lafayette, IN). It is a natural product that is used extensively in tissue engineering as a bioscaffold. J82 bladder cancer cells and other cell lines were obtained from the ATCC (Bethesda, MD). […] Efficacy in vitro was assessed by plating 30,000 cells in 50 μL of high glucose DMEM with penicillin-streptomycin and 10 % fetal calf serum on SISgel in a 96-well plate containing 50 μL of gelled SISgel per well. Cells were allowed to attach and assume the SISgel phenotype for 48 h. A matching plate without SISgel was prepared 24 h later by pipetting 3,000 cells in 100 μL of high glucose DMEM with penicillin-streptomycin and 10 % fetal calf serum into each well of 96 well plate. The cells were allowed to attach and grow for 24 h. […] The cells were exposed to drug in fresh medium for 48 h, at which time the cell number was determined using the CFDA-AM cellular esterase proliferation assay (cat. #C1354, Life Technologies). For screening the results are reported as the ratio of cell count of cells on the plastic surface to the cell count on SISgel. An initial difference of 1.5 fold identified potential hits. All potential hits were confirmed in triplicate. […] Data were analyzed using nonlinear regression to a sigmoid curve with Prism 4 (GraphPad Software, Inc., LaJolla, CA). […]
# [5] = tested on: protein tyrosine phosphatase (PTP); set-up: method as in PMID 9575179; settings: cited from earlier work
# [6] = tested on: 4T1 Luc2-GFP cells; assay: Orthotopic 4T1 syngeneic model of triple-negative breast cancer with natural lung metastasis; assay type: in vivo, BALB/c mice
# Method: 4T1 Luc2-GFP cells (PerkinElmer, Waltham, MA) were cultured in DMEM high glucose media with 2 mM pyruvate, 2 mM glutamine, 2 % Pen/Strep and 10 % Cosmic Calf Serum (Mediatech, Manassas, VA). To prepare cells for injection they were removed from flasks, counted using the TC10 counting system (BioRad, Hercules, CA) and checked for viability. Cells were then washed with PBS, pelleted and taken up at a concentration of 75,000 cells/ml; 100 μl of cell suspension (7,500 cells) was injected subcutaneously (bevel side up) into mammary fat pad #4 of 8 weeks old female BALB/c mice (NCI National Laboratory Frederick/Charles River animal production program). All animals were weighed and tumors were measured using calipers three times weekly. Beginning one week after implantation, which is when micrometastatic cells begin to arrive in the lungs, animals were treated three times per week with intraperitoneal DT310 or DT320 at their NOAEL dose of 75 mg/kg three times week dissolved in saline or by osmotic pump. The osmotic pumps (Alzet #2004) delivered an NOAEL dose of 23.4 and 26.7 μg/h of DT310 and DT320, respectively, for 4 weeks and were implanted as directed subcutaneously posterior to scapulae. Docetaxel was delivered once weekly intraperitoneally at its MTD of 15 mg/kg and doxorubicin delivered once weekly at its MTD of 1 mg/kg in 5 % N-Methyl-2-pyrrolidone, 5 % Solutol HS, and 90 % saline. GFP positive cells were imaged with excitation of GFP emission using a Leica Model Z16 APO fluorescence microscope equipped for a wide field, a large depth of field and 0.57–9.2X zoom capability. GFP-positive objects were counted and scored as to whether they were […], clumps of less than ten cells without a visible vasculature, as determined by co-injection of tetramethylrhodamine labeled dextran (2 million MW).
# [7] = tested on: MDA-MB-435 cells; assay: Western blot of protein levels after treatment; assay type: cell-based
# Method: Protein content of selected proteins identified by reversed phase protein array (see supplementary materials) as being involved mechanistically in the response to DT320 was assayed by Western blot as described using the following antibodies. The following antibodies were purchased from Cell Signaling Technology (Beverly, MA) and diluted per manufacturer’s directions: Rabbit mAb Anti-Phospho-AKT (Ser473) (D9E) XP® #4060, Rabbit mAb anti-p38 MAPK (D13E1) XP® #8690, Mouse mAb anti-Phospho-SAPK/JNK (Thr183/Tyr185) (G9) #9255, Rabbit mAb anti-Phospho-CHK1 (Ser345) (133D3) #2348, Rabbit polyclonal anti-Phospho-CHK2 (Thr68) Antibody #2661, Rabbit polyclonal anti-BAX Antibody #2772, Rabbit polyclonal anti-Vinculin Antibody #4650, Mouse mAb anti-Cyclin D1 (DCS6) #2926, Rabbit mAb anti-Cyclin E2 (D52F9) b #3741, […], Mouse mAb anti-Cyclin B1 (V152) #4135, Rabbit mAb anti-cleaved PARP (Asp214) (D64E10) XP® #5625, Rabbit mAb anti-cleaved Caspase-3 (Asp175) (5A1E) #9654, Rabbit mAb anti-Nanog (D73G4), #4903; Rabbit mAb anti-Oct4 (C52G3) #2890; and Rabbit mAb anti-Sox2 (D6D9) #3579. Specificity of each antibody is illustrated on the company’s web page. For negative controls, pre-immune rabbit IgG was used. No signal was detected in the control IgG samples. No intensities or contrast were modified, but the appropriate bands were cut out using PhotoShop to prepare composite gel images.
# To elucidate the mechanism of DT310 and DT320, cell cycle analysis and Western blotting was performed. The proteins for Western blot were selected from preliminary results using reverse phase protein array (RPPA) for DT320 and DT321 treated MDA-MB-435 and T24 cells. […] Proteins within these clusters showing the largest differences in protein expression and that were related to known anticancer drug action were confirmed by Western blot. Docetaxel was used as a positive control because it is known to induce a cell cycle arrest and apoptosis signature.
# [8] = in vivo; settings: BALB/c, mouse, ip
smiles,measurement,setting,value
"N.N.[Cl][Pt][Cl] [cisplatin, reference compound]",EC50,"[1]; J82 monolayer, read-out: EC50 Monolayer",102 ± 10.2 µM
same,EC50,"[1]; J82 on SISgel, read-out: EC50 SISgel",> 300 µM
"Nc1ccn([C@@H]2O[C@H](CO)[C@@H](O)C2(F)F)c(=O)n1 [gemcitabine, reference compound]",EC50,"[2]; Capan-1 monolayer, read-out: EC50 Monolayer",78.2 ± 9.8 µM
same,EC50,"[2]; Capan-1 on SISgel, read-out: EC50 SISgel",83.1 ± 10.7 µM
same,response of suppressed flank xenografts,[3],no response in all six flank xenografts; also recorded: remained present
"Cc1ccc(C(=O)Nc2ccc(S(=O)(=O)O)c3cc(S(=O)(=O)O)cc(S(=O)(=O)O)c23)cc1NC(=O)c1cccc(NC(=O)Nc2cccc(C(=O)Nc3cc(C(=O)Nc4ccc(S(=O)(=O)O)c5cc(S(=O)(=O)O)cc(S(=O)(=O)O)c45)ccc3C)c2)c1 [Suramin, reference compound]",SR,[4]; ratio IC50-p/IC50-S,1.4
same,IC50,[4]; read-out: IC50-S,226 µM
same,IC50,[4]; read-out: IC50-p,321 µM
same,PTP inhibition,[5],potent
CC(=O)O[C@@]12CO[C@@H]1C[C@H](O)[C@@]1(C)C(=O)[C@H](O)C3=C(C)[C@@H](OC(=O)[C@H](O)[C@@H](NC(=O)OC(C)(C)C)c4ccccc4)C[C@@](O)([C@@H](OC(=O)c4ccccc4)[C@H]21)C3(C)C [docetaxel],primary tumor growth,[6]; administered i.p. at MTD,little effect
same,number of large multicellular micrometastases and vascularized macrometastases to the lung,[6]; i.p. or osmotic pump,only minimal effects
same,CHK1 expression,[7],neither of the DT compounds nor docetaxel induced CHK1
same,Cyclin A1 (CCNA1) expression,[7],sharply down-regulate
same,Cyclin D1 (CCND1) expression,[7],down-regulated
same,cyclin B1 (CCNB1) expression,[7],down-regulated
same,pSAP/JNK expression,[7],not
same,pAKT expression,[7]; 24 h,did not
same,MTD,[8],15 mg/kg

# Source: paper PMC4434572, “Identification of novel drugs to target dormant micrometastases” (BMC Cancer, 2015)
